One compound from paper PMC5945843, “Direct neurotransmitter activation of voltage-gated potassium channels” (Nature Communications, 2018) can be followed below.

Targets include KCNQ1 (Homo sapiens, UniProt P51787); KCNQ4 (Homo sapiens, UniProt P56696); KCNQ5 (Homo sapiens, UniProt Q9NR82).
Common to all, as to experiment: 3H-GABA radioligand binding in Xenopus oocytes
Holding throughout (details): extracellularly applied, 100 nM

Take `[3H]C(CN)C([3H])C(=O)O` (stereo not drawn) [^3H-GABA]: the 3H-GABA binding entry on KCNQ1 is reported as “did not”; on KCNQ4, “bound”; at KCNQ5, “bound”.
